Data on 1 compound can be found in patent publication US10738004B2, “Cyclic compound” (Takeda Pharmaceutical Company Limited, priority 2016, dated 2020).

The target in one data set is T1, TLR4 (Mus musculus, UniProt Q9QUK6).
T1 construct: measured using mouse macrophage cell line RAW264.7; endogenous in cells; host or cells: RAW264.7 (mouse macrophage cell line)
T1 sequence (Q9QUK6 26-835): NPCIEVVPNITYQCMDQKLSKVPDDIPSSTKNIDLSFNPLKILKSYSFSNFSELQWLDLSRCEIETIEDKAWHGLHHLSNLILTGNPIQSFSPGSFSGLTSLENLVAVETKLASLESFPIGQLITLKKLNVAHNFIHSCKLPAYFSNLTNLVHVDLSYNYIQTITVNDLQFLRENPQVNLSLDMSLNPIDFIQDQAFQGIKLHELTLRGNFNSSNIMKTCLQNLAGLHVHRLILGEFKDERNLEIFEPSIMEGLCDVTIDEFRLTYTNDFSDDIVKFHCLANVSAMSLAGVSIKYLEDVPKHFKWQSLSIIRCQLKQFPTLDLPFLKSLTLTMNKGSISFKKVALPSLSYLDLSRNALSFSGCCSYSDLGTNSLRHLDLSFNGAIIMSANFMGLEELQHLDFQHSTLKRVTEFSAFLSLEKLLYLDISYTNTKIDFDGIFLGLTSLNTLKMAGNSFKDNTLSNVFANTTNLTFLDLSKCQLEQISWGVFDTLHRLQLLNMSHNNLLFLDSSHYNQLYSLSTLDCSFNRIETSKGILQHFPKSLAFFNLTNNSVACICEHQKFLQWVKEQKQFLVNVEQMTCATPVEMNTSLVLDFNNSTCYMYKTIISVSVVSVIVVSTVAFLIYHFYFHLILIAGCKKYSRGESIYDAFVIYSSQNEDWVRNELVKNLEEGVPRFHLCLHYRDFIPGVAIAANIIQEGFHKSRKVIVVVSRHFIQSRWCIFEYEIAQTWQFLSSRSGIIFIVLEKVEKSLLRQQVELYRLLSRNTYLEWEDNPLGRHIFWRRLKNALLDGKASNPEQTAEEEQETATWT
T1 sequence (Q9JHF9 19-160 partner): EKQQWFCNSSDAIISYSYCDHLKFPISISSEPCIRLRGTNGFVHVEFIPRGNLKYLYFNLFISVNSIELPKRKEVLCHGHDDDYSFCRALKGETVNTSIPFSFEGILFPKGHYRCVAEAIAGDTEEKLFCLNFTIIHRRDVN
Briefly: Suppressive effect on NO production (LPS-stimulated RAW264.7). The following applies: mouse macrophage cell line RAW264.7; compound final concentration 10 nM; LPS 1.25 ng/ml + mouse interferon gamma 0.2 ng/ml; nitrite ion in culture supernatant (DAN fluorescence). In kind it is cell-based. The protocol: The suppressive activity on TLR4 was measured using mouse macrophage cell line RAW264.7 and by an inhibition ratio by the test compound (compound of Example 1) against NO produced by the addition of lipopolysaccharide (LPS). The cells were prepared at 2×10^6 cells/ml in RPMI-1640 medium (phenol red free) supplemented with 10% inactivated fetal calf serum, and seeded in a 384-well plate at 6×10^4 cells/30 μL per well. The cells were cultured overnight at 37° C. under 5% CO2/95% air. The test compound dissolved in DMSO was diluted 200-fold with RPMI-1640 medium to a compound concentration of […]. The prepared test compound (10 μL) was added to the cells (final concentration 10 nM), and LPS (Sigma Ltd.) and mouse interferon gamma (Wako Pure Chemical Industries, Ltd.) were respectively added by 10 μL to the final concentrations of 1.25 ng/ml and 0.2 ng/ml. After further culturing overnight, the concentration of nitrite ion (stable metabolite of NO) in the culture supernatant was measured and used as an index of NO production. The nitrite ion concentration was quantified by adding 10 μL of a solution of 20 μg/mL 2,3-diaminonaphthalene (DAN) in 0.2N HCl to the culture supernatant (20 μL), incubating the mixture at room temperature for 10 min, adding 0.5N NaOH (10 μL), and measuring 460 nm (excitation wavelength 355 nm) fluorescence value by a plate reader EnVision (PerkinElmer). […]

As to `CCOC(=O)C1=C[C@@H](O)CC[C@H]1S(=O)(=O)Cc1ccc(F)cc1Cl` (single isomer, unassigned) [Example 1], the melting point lay in the range of 155 to 156 °C. Moreover, the “NO production suppression effect at 10 nM (% inhibition)” value on TLR4 was 98 % inhibition.
